According to ChEMBL document CHEMBL1149220, “1-(2-Naphthyl)-1H-pyrazole-5-carboxylamides as potent factor Xa inhibitors. Part 2: A survey of P4 motifs” (Bioorg Med Chem Lett, 2004):
pIC50, pKi: −log10 of the molar value.

Assays:
[1] = Volume of distribution in rat; assay type: ADME, organism-based; settings: in vivo
[2] = Clearance rate in rat; assay type: ADME, organism-based; settings: in vivo
[3] = Bioavailability in rat; assay type: ADME, organism-based; settings: in vivo
[4] = Half-life determined in rat; assay type: ADME, organism-based; settings: in vivo
[5] = target: Vitamin K-dependent protein C (Homo sapiens, UniProt P04070); experiment: Inhibitory concentration of compound was determined against activated protein C (aPC)
Coagulation factor X [6] = target: T1, Coagulation factor X (Homo sapiens, UniProt P00742); experiment: Inhibitory concentration against human Coagulation factor X
Coagulation factor X [7] = target: T1, Coagulation factor X; experiment: Binding affinity against Coagulation factor X
Coagulation factor X [8] = target: T1, Coagulation factor X; experiment: In vitro anticoagulant potency measured in human plasma by thrombin generation (TG) assay expressed as 2 x TG; assay type: functional, cell-free
Kallikrein-1 = Kallikrein-1 (Homo sapiens, UniProt P06870); experiment: Inhibitory concentration of compound was determined against kallikrein
Plasminogen = experiment: Inhibitory concentration of compound was determined against Plasmin
Prothrombin = Prothrombin (Homo sapiens, UniProt P00734); experiment: Inhibitory concentration of compound was determined against thrombin
[9] = target: Tissue-type plasminogen activator (Homo sapiens, UniProt P00750); experiment: Inhibitory concentration against tissue type plasminogen activator
Serine protease 1 = Serine protease 1 (Homo sapiens, UniProt P07477); experiment: Inhibitory concentration of compound was determined against trypsin
Chain of Serine protease 1 (P07477 whole entry): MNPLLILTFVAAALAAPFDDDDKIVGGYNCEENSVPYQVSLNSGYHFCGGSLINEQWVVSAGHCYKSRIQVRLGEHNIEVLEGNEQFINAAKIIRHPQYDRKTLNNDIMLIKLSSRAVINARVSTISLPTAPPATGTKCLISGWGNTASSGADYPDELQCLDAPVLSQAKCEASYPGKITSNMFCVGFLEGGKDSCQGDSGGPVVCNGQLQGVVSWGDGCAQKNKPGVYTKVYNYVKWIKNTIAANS

T1 sequence (P00742 41-179 limits assumed): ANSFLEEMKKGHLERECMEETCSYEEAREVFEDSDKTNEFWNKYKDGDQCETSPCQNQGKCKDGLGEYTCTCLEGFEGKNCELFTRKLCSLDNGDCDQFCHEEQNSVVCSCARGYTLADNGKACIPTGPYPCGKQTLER
T1 sequence (P00742 235-488 limits assumed): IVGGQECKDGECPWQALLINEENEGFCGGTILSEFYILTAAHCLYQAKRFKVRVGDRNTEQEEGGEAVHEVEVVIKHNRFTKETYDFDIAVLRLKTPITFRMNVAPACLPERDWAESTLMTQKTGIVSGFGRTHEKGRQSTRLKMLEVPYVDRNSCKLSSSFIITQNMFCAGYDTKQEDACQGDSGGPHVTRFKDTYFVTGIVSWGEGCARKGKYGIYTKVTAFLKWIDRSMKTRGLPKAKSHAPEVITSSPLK
Chain of Plasminogen (Q01177 97-581 limits assumed): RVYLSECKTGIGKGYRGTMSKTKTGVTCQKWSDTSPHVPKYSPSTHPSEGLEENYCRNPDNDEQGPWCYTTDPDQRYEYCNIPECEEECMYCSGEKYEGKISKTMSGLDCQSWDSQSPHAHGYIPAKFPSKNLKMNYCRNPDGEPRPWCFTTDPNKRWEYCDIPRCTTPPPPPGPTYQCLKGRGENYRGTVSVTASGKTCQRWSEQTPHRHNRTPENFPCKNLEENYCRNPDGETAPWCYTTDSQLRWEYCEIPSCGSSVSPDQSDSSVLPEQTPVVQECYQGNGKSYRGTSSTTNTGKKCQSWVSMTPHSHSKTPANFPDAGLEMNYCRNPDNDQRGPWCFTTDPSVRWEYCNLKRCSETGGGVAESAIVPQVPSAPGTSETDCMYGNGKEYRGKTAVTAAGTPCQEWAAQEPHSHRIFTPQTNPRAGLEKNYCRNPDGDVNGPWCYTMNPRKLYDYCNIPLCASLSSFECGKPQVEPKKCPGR
Chain of Plasminogen (Q01177 582-812 limits assumed): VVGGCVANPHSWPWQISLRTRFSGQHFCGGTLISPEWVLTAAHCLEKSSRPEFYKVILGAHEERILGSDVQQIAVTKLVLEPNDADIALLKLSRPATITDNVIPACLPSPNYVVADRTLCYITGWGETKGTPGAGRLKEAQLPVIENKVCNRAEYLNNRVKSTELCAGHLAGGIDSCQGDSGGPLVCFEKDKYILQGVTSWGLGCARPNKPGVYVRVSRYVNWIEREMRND
Chain of Kallikrein-1 (P06870 whole entry): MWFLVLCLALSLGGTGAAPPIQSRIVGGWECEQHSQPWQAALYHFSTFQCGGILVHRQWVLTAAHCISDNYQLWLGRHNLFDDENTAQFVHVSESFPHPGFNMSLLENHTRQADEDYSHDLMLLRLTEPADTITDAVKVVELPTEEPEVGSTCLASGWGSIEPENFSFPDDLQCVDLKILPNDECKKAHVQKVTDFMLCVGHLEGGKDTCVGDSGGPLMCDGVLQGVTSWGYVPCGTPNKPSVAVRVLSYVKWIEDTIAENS
Chain of Tissue-type plasminogen activator (P00750 whole entry): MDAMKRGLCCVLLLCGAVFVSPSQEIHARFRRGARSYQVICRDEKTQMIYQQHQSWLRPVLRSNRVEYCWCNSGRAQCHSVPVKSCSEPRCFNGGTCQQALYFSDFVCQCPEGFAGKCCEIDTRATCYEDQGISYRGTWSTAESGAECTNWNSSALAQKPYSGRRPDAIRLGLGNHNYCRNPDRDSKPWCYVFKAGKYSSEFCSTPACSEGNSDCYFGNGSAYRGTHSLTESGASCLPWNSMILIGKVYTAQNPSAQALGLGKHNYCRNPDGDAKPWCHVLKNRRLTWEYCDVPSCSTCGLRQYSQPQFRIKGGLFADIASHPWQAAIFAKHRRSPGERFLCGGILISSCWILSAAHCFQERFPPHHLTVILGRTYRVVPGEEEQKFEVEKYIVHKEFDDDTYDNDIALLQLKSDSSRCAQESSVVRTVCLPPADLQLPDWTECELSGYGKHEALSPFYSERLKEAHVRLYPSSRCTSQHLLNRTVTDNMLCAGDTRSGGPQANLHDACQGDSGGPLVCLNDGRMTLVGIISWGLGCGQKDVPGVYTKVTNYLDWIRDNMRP
Chain of Vitamin K-dependent protein C (P04070 43-197 limits assumed): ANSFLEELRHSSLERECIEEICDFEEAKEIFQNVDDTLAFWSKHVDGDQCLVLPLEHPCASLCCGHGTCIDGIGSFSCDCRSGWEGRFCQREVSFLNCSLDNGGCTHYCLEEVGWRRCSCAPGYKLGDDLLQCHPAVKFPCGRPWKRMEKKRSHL
Chain of Vitamin K-dependent protein C (P04070 212-461 limits assumed): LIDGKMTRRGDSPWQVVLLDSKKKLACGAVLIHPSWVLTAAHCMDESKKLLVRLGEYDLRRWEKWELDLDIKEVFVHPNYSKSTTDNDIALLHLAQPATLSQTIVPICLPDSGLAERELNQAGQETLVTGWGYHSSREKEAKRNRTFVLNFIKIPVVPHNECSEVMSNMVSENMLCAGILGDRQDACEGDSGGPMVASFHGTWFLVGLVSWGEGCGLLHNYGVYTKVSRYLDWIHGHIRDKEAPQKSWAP

Row | Compound | pIC50 (Coagulation factor X [6]) | Activity (Coagulation factor X [8]) [µM] | other results
1 | Cc1cc(C(=O)Nc2ccc(-c3ccccc3S(C)(=O)=O)cc2F)n(-c2cc3ccccc3cc2S(C)(=O)=O)n1 | 8.05 | 1 | Vd [1]: 2.6 L/kg; clearance [2]: 41.2 mL/min/kg; bioavailability [3]: 18%; half-life [4]: 42 min; pIC50 [5]: < 5.00; pKi (Coagulation factor X [7]): 8.77; pIC50 (Kallikrein-1): < 5.00; pIC50 (Plasminogen): < 5.00; pIC50 (Prothrombin): < 5.00; pIC50 [9]: < 5.00; pIC50 (Serine protease 1): < 5.00
2 | Cc1cc(C(=O)Nc2ccc(-c3ccccc3S(N)(=O)=O)cc2F)n(-c2cc3ccccc3cc2F)n1 | 7.54 | – | –
3 | Cc1cc(C(=O)Nc2ccc(-c3cccc(C(=N)N(C)C)c3)cc2)n(-c2ccc3cc(Cl)ccc3c2)n1 | 6.42 | – | –
4 | Cc1cc(C(=O)Nc2ccc(N3CCCCCC3=O)cc2F)n(-c2cc3ccccc3cc2S(C)(=O)=O)n1 | 7.33 | – | –
5 | Cc1cc(C(=O)Nc2ccc(N3CCCN(C)CC3)cc2)n(-c2ccc3cc(Cl)ccc3c2)n1 | 7.66 | 5 | –
6 | Cc1cc(C(=O)Nc2ccc(N3CCCC3=O)cc2F)n(-c2cc3ccccc3cc2S(C)(=O)=O)n1 | 7.24 | – | –
7 | Cc1cc(C(=O)Nc2ccc(N3CCCCC3)cc2)n(-c2ccc3cc(Cl)ccc3c2)n1 | 6.88 | – | –
8 | Cc1cc(C(=O)Nc2ccc(-n3ccnn3)cc2)n(-c2ccc3cc(Cl)ccc3c2)n1 | 6.95 | – | –
9 | Cc1cc(C(=O)Nc2ncc(-c3ccccc3S(N)(=O)=O)cn2)n(-c2ccc3cc(Cl)ccc3c2)n1 | 8.15 | 2 | pKi (Coagulation factor X [7]): 8.60
10 | Cc1cc(C(=O)Nc2ccc(N3CCOCC3=O)cc2F)n(-c2cc3ccccc3cc2F)n1 | 8.70 | > 5 | pKi (Coagulation factor X [7]): 9.30
11 | Cc1cc(C(=O)Nc2ccc(-n3ccnc3C)cc2F)n(-c2ccc3cc(Cl)ccc3c2)n1 | 7.82 | – | –
12 | Cc1cc(C(=O)Nc2ccc(-c3ccccn3)cc2F)n(-c2ccc3cc(Cl)ccc3c2)n1 | 7.03 | – | –
13 | Cc1cc(C(=O)Nc2ccc(N3CCNCC3=O)cc2F)n(-c2cc3ccccc3cc2S(C)(=O)=O)n1 | 7.39 | – | –
14 | Cc1cc(C(=O)Nc2ccc(N3CCCCC3=O)cc2F)n(-c2cc3ccccc3cc2S(C)(=O)=O)n1 | 7.57 | – | –
15 | Cc1cc(C(=O)Nc2ccc(-c3cccnc3)cc2F)n(-c2ccc3cc(Cl)ccc3c2)n1 | 7.04 | – | –
16 | Cc1cc(C(=O)Nc2ccc(-c3ccccc3S(C)(=O)=O)cc2)n(-c2ccc3cc(Cl)ccc3c2)n1 | – | > 5 | pKi (Coagulation factor X [7]): 8.85
17 | Cc1cc(C(=O)Nc2ccc(-c3ccccc3S(C)(=O)=O)cc2F)n(-c2cc3ccccc3cc2F)n1 | 7.85 | – | –
18 | Cc1cc(C(=O)Nc2ccc(C(=O)N3CCCC3)cc2)n(-c2ccc3cc(Cl)ccc3c2)n1 | 8.22 | > 5 | pKi (Coagulation factor X [7]): 8.74
19 | Cc1cc(C(=O)Nc2ccc(N3CCNCCC3=O)cc2)n(-c2ccc3cc(Cl)ccc3c2)n1 | 6.89 | – | –
20 | Cc1cc(C(=O)Nc2ccc(C(=O)N3CCCCC3)cc2)n(-c2ccc3cc(Cl)ccc3c2)n1 | 7.18 | – | –
21 | Cc1cc(C(=O)Nc2ccc(N3CCOCC3)cc2)n(-c2ccc3cc(Cl)ccc3c2)n1 | 7.06 | – | –
22 | Cc1cc(C(=O)Nc2ccc(N3CCCNCC3)cc2)n(-c2ccc3cc(Cl)ccc3c2)n1 | 7.44 | – | –
23 | Cc1cc(C(=O)Nc2ccc(-n3cccn3)cc2)n(-c2ccc3cc(Cl)ccc3c2)n1 | 6.67 | – | –
24 | Cc1cc(C(=O)Nc2ccc(N3CCOCC3=O)cc2F)n(-c2ccc3cc(Cl)ccc3c2)n1 | 9.00 | 5 | pKi (Coagulation factor X [7]): 9.30
25 | Cc1cc(C(=O)Nc2ccc(C(=O)N(C)C)cc2)n(-c2ccc3cc(Cl)ccc3c2)n1 | 7.89 | > 5 | –
26 | Cc1cc(C(=O)Nc2ccc(-c3ccncc3)cc2F)n(-c2ccc3cc(Cl)ccc3c2)n1 | 7.40 | – | –
27 | Cc1cc(C(=O)Nc2ccc(-c3ccccc3S(C)(=O)=O)cc2F)n(-c2ccc3cc(Cl)ccc3c2)n1 | 8.22 | > 5 | pKi (Coagulation factor X [7]): 8.74
28 | Cc1cc(C(=O)Nc2ncc(-c3ccccc3S(N)(=O)=O)cn2)n(-c2cc3ccccc3cc2F)n1 | 7.41 | – | –
